Reference: patent publication US10556860B2, “hTERT modulators and methods of use” (Arizona Board of Regents on Behalf of the University of …, priority 2015, dated 2020)

Legend:
[1] = test system: G124/125A mutant hTERT 5-12 fragment; assay: Single-molecule laser tweezer unfolding, G124/125A mutant; format: biochemical, human; settings: 2 μM, 10 mM Tris, 100 mM KCl, pH 7.4; single- and double-stranded template
Protocol: Single-molecule tweezer. Preparation of the DNA construct. The DNA construct that contains the single-stranded hTERT 5-12 fragment was prepared by sandwiching the target sequence between two double-stranded DNA handles. Five deoxythymidines were added at both ends of the hTERT 5-12 fragment to reduce the interference from the double-stranded DNA handles on the target sequence. Briefly, the 2690-base-pair double-stranded DNA handle was prepared through restriction enzyme digestion of the pEGFP vector (Clontech, Mountain View, Calif.). In the first step, the vector was digested by Sad and Eagl restriction enzymes, followed by purification with agarose gel. The EagI end of the DNA fragment was labeled with digoxigenin using terminal deoxynucleotidyl transferase. […]
Single-molecule force-ramp assay. […] After this, the two beads were moved apart to increase the tension on the DNA tether with a loading rate of 5.5 pN/s, and the force-extension (F-X) curves were recorded using the LabVIEW program (National Instruments Corp., Austin, Tex.).
The F-X curves were filtered by Savitzky-Golay function with a 10 ms time constant in the MATLAB program (The Math Works, Natick, Mass.). […] The change-in-contour length (ΔL) was calculated based on the Δx through the worm-like chain model (equation 1). […]

[2] = test system: i-motif formed from the full-length C-rich strand of hTERT promoter; assay: CD melting (Tm), i-motif; format: binding, human; settings: pH 6.6
Protocol: Circular dichroism. Oligomers of WT, G124A, G124/125A, G138/139A and G146A were synthesized and HPSF-purified by MGW Operon, Inc. For CD analysis, oligomers (5 μM) in a buffer containing 10 mM Tris-HCl (pH 7.5) and 140 mM KCl were annealed. For the CD analysis of the complex of oligomers and compounds, oligomers (5 μM) in a buffer containing 10 mM Tris-HCl (pH 7.5) and 5 mM KCl for GTC365 or 1 mM KCl for BRACO-19 were annealed. Oligomers and GTC365 or BRACO-19 were incubated overnight at room temperature. For the full-length of C-rich strand, the oligomer in a buffer of 10 mM Na cacodylate (pH 6.6) was annealed and then incubated with GTC365 overnight. CD analysis was conducted on a Jasco 810 spectropolarimeter (Jasco, Easton, Md.) using a quartz cell with 1 mm of path length, 1 nm of band width, and 1 s of response time for spectra at 20° C. Melting curves for the determination of Tm were obtained by recording ellipticity at 262 nm with increasing temperatures from 25° C. to 95° C. at a rate of 1.6° C./min. Tm of the C-rich strand with GTC365 was obtained from the CD signal at 286 nm within 10-60° C.
In contrast, BRACO-19 increased the Tm of telomeric G-quadruplex by ˜60% compared to that of the hTERT G-quadruplex at 0.5 and 1 equiv. A summary of the comparative Tms of GTC365 and BRACO-19 in hTERT and telomeric DNA is shown below.

N=C(N)NCCCS(=O)(=O)Nc1ccc(Nc2c3ccccc3nc3cc([N+](=O)[O-])ccc23)cc1 [GTC365]
full-length G-rich species (>36 nt/bp) population [1]: recovered | change in Tm of the i-motif [2]: little change in Tm
